The target of this assay is T1, Edg-1/S1P1 receptor (Homo sapiens, UniProt P21453).
T1 construct: expressed in transfected cells; host or cells: human osteogenic sarcoma U2OS cells: Edg-1 Transfluor U2OS WT Clone #37 (assay I), Edg-1 Transfluor U2OS Clone #3 (assay II)
T1 sequence (P21453 whole entry): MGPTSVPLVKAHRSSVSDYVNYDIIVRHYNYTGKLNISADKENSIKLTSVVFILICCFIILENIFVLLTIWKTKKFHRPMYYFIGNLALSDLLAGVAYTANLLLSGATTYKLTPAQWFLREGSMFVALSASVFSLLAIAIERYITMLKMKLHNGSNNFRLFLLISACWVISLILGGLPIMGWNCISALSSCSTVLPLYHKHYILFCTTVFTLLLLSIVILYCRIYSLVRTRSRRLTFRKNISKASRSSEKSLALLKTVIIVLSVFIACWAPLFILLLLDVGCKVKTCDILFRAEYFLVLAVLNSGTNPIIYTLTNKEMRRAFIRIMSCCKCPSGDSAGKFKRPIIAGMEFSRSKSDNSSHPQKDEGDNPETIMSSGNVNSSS
As to the kind of experiment: In vitro cell based receptor activation assay - Transfluor assay (assay I or II; beta-arrestin GFP relocalization after S1P stimulation). Particulars: at 3.50 μM (titrated from top concentration 10 μM). In short, it runs like this:
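U2OS cells overexpressing S1P1 with a beta-arrestin-GFP construct were pre-incubated with compound for 15 min at room temperature, then stimulated with S1P for 45 min at 37 °C. In assay I, final S1P was 375 nM or 750 nM and compound was a 9-point 3-fold series from 100 μM, in 1% DMSO. Cells were fixed and Hoechst-stained, GFP relocalization was imaged, and EC50 values were fitted.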
For the molecule `CCn1c(C(C)(C)NS(=O)(=O)c2ccc(F)cc2)nc2cnc(C(F)(F)F)cc21` [Example 153, N-(2-(1-Ethyl-6-(trifluoromethyl)-1H-imidazo[4,5-c]pyridin-2-yl)propan-2-yl)-4-fluorobenzenesulfonamide], 3.5 µM produced 82% inhibition. For `CCn1c(C(C)(C)NS(=O)(=O)c2ccc(C#N)cc2)nc2cnc(C(F)(F)F)cc21` [Example 154, 4-Cyano-N-(2-(1-ethyl-6-(trifluoromethyl)-1H-imidazo[4,5-c]pyridin-2-yl)propan-2-yl)benzenesulfonamide] the value was 77.3%; for `CCn1c(C(C)(C)NS(=O)(=O)c2ccc(C#N)nc2)nc2cnc(C(F)(F)F)cc21` [Example 155, 6-Cyano-N-(2-(1-ethyl-6-(trifluoromethyl)-1H-imidazo[4,5-c]pyridin-2-yl)propan-2-yl)pyridine-3-sulfonamide], 78.9%; for `CCn1c([C@@H](C)NS(=O)(=O)c2ccc(OC(C)C)cc2)nc2ccc(C(F)(F)F)cc21` [Example 156], 80.7%. As for `CCOc1ccc(S(=O)(=O)N[C@H](C)c2nc3ccc(C(F)(F)F)cc3n2CC)cc1` [Example 157, (R)-4-Ethoxy-N-(1-(1-ethyl-6-(trifluoromethyl)-1H-benzo[d]imidazol-2-yl)ethyl)benzenesulfonamide], the figure is 88.4%; as for `CCn1c([C@@H](C)NS(=O)(=O)c2ccc(C(N)=O)n2C)nc2ccc(C(F)(F)F)cc21` [Example 158, (R)-5-(N-(1-(1-Ethyl-6-(trifluoromethyl)-1H-benzo[d]imidazol-2-yl)ethyl)sulfamoyl)-1-methyl-1H-pyrrole-2-carboxamide], 93.6%. For `CCn1c([C@@H](C)NS(=O)(=O)c2ccc(-c3ccccc3)cc2)nc2ccc(C(F)(F)F)cc21` [Example 159, (R)-N-(1-(1-Ethyl-6-(trifluoromethyl)-1H-benzo[d]imidazol-2-yl)ethyl)biphenyl-4-sulfonamide] the value was 19.8%; for `CCn1c([C@@H](C)NS(=O)(=O)c2cc(C)nc(C)c2)nc2ccc(C(F)(F)F)cc21` [Example 160, (R)-N-(1-(1-Ethyl-6-(trifluoromethyl)-1H-benzo[d]imidazol-2-yl)ethyl)-2,6-dimethylpyridine-4-sulfonamide], 90.3%. Molecule `CCn1c([C@@H](C)NS(=O)(=O)c2ccnc(C)c2)nc2ccc(C(F)(F)F)cc21` [Example 161, (R)-N-(1-(1-Ethyl-6-(trifluoromethyl)-1H-benzo[d]imidazol-2-yl)ethyl)-2-methylpyridine-4-sulfonamide] displayed an inhibition at 3.5 µM of 91.4%.

`CCn1c([C@@H](C)NS(=O)(=O)c2cncc(Br)c2)nc2ccc(C(F)(F)F)cc21` [Example 162] returned an inhibition at 3.5 µM of 90.3%. Take `CCn1c([C@@H](C)NS(=O)(=O)c2ccc[n+]([O-])c2)nc2ccc(C(F)(F)F)cc21` [Example 164, (R)-3-(N-(1-(1-ethyl-6-(trifluoromethyl)-1H-benzo[d]imidazol-2-yl)ethyl)sulfamoyl)pyridine 1-oxide]: testing at 3.5 µM gave an inhibition of 19.5%.

The molecule `CCn1c([C@@H](C)NS(=O)(=O)c2cc[n+]([O-])cc2)nc2ccc(C(F)(F)F)cc21` [Example 165, (R)-4-(N-(1-(1-Ethyl-6-(trifluoromethyl)-1H-benzo[d]imidazol-2-yl)ethyl)sulfamoyl)pyridine 1-oxide] displayed an inhibition at 3.5 µM of 75.6%.

As to `CCn1c([C@@H](C)NS(=O)(=O)c2ccc(CCl)cc2)nc2ccc(C(F)(F)F)cc21` [Example 166, (R)-4-(Chloromethyl)-N-(1-(1-ethyl-6-(trifluoromethyl)-1H-benzo[d]imidazol-2-yl)ethyl)benzenesulfonamide], the inhibition at 3.5 µM is 86%. As for `CCn1c([C@@H](C)NS(=O)(=O)c2ccc(CC#N)cc2)nc2ccc(C(F)(F)F)cc21` [Example 167, (R)-4-(cyanomethyl)-N-(1-(1-ethyl-6-(trifluoromethyl)-1H-benzo[d]imidazol-2-yl)ethyl)benzenesulfonamide], the figure is 86%; as for `CCn1c([C@@H](C)NS(=O)(=O)c2ccc(NN)nc2)nc2ccc(C(F)(F)F)cc21` [Example 168, (R)—N-(1-(1-ethyl-6-(trifluoromethyl)-1H-benzo[d]imidazol-2-yl)ethyl)-6-hydrazinylpyridine-3-sulfonamide], 77.1%. As for `CCn1c(C(C)NS(=O)(=O)c2cnc(N)c(Cl)c2)nc2ccc(C(F)(F)F)cc21` (stereo not shown) [Example 169, 6-amino-5-chloro-N-(1-(1-ethyl-6-(trifluoromethyl)-1H-benzo[d]imidazol-2-yl)ethyl)pyridine-3-sulfonamide], the figure is 87.1%. As for `CCn1c(C(C)NS(=O)(=O)c2ccc(N)nc2)nc2ccc(C(F)(F)F)cc21` (stereo not shown) [Example 170, 6-amino-N-(1-(1-ethyl-6-(trifluoromethyl)-1H-benzo[d]imidazol-2-yl)ethyl)pyridine-3-sulfonamide], the figure is 83.1%; as for `CCn1c(C(C)NS(=O)(=O)c2ccc(=O)[nH]c2)nc2ccc(C(F)(F)F)cc21` (stereo not shown) [Example 171, N-(1-(1-ethyl-6-(trifluoromethyl)-1H-benzo[d]imidazol-2-yl)ethyl)-6-oxo-1,6-dihydropyridine-3-sulfonamide], 73.3%. Take `CCn1c([C@@H](C)NS(=O)(=O)c2ccc(C(=O)NC)nc2)nc2ccc(C(F)(F)F)cc21` [Example 172, (R)-5-[1-(1-Ethyl-6-trifluoromethyl-1H-benzoimidazol-2-yl)-ethylsulfamoyl]-pyridine-2-carboxylic acid methylamide]: the inhibition at 3.5 µM was determined as 69.1%. For `CCn1c([C@@H](C)NS(=O)(=O)c2ccc(C#N)nc2)nc2cnc(C3CC3)cc21` [Example 173, 6-Cyano-pyridine-3-sulfonic acid [1-(6-cyclopropyl-1-ethyl-1H-imidazo[4,5-c]pyridin-2-yl)-ethyl]-amide] the value was 81.9%; for `CCn1c([C@@H](C)NS(=O)(=O)c2ccc(C(N)=O)nc2)nc2cnc(C3CC3)cc21` [Example 174, 5-[1-(6-Cyclopropyl-1-ethyl-1H-imidazo[4,5-c]pyridin-2-yl)-ethylsulfamoyl]-pyridine-2-carboxylic acid amide], 87.8%; for `CCn1c(C(C)(C)NS(=O)(=O)c2ccc(C#N)cc2)nc2ncccc21` [Example 176, 4-Cyano-N-[1-(1-ethyl-1H-imidazo[4,.5-b]pyridin-2-yl)-1-methylethyl] benzenesulfonamide], 36.3%. For `CCn1c(C(C)(C)NS(=O)(=O)c2ccc(C#N)nc2)nc2ncccc21` [Example 177, 6-cyano-N-(2-(1-ethyl-1H-imidazo[4,5-b]pyridin-2-yl)propan-2-yl)pyridine-3-sulfonamide] the value was 3.55%. For `CCn1c(C(C)(C)NS(=O)(=O)c2ccc(C(N)=O)nc2)nc2ncccc21` [Example 178, 5-({[1-(1-Ethyl-1H-imidazo[4,5-b]pyridin-2-yl)-1-methylethyl]amino}sulfonyl)pyridine-2-carboxamide] the value was 8.27%; for `CCn1c([C@@H](C)NS(=O)(=O)c2ccc(F)cc2)nc2ncc(C(F)(F)F)cc21` [Example 179, N-{(1R)-1-[1-Ethyl-6-(trifluoromethyl)-1H-imidazo[4,5-b]pyridin-2-yl]ethyl}-4-fluorobenzene sulfonamide], 90.5%; for `CCn1c([C@@H](C)NS(=O)(=O)c2ccc(C#N)cc2)nc2ncc(C(F)(F)F)cc21` [Example 180, 4-Cyano-N-{(1R)-1-[1-ethyl-6-(trifluoromethyl)-1H-imidazo[4,5-b]pyridin-2-yl]ethyl}benzenesulfonamide], 91.1%. The molecule `CCn1c([C@@H](C)NS(=O)(=O)c2ccc(C#N)nc2)nc2ncc(C(F)(F)F)cc21` [Example 181, 6-Cyano-N-{(1R)-1-[1-ethyl-6-(trifluoromethyl)-1H-imidazo[4,5-b]pyridin-2-yl]ethyl}pyridine-3-sulfonamide] had an inhibition at 3.5 µM of 90.6%. For the molecule `CCn1c([C@@H](C)NS(=O)(=O)c2ccc(NC)nc2)nc2ccc(C(F)(F)F)cc21` [Example 182, N-{(1R)-1-[1-Ethyl-6-(trifluoromethyl)-1H-benzimidazol-2-yl]ethyl}-6-(methylamino)pyridine-3-sulfonamide], at 3.5 µM the inhibition was 92.5%. For `CCn1c(C(C)(C)NS(=O)(=O)c2ccc(C#N)cc2)nc2cnc(C3CC3)cc21` [Example 185, 4-Cyano-N-[1-(6-cyclopropyl-1-ethyl-1H-imidazo[4,5-c]pyridin-2-yl)-1-methyl-ethyl]-benzenesulfonamide] the value was 65%; for `CCn1c(C(C)(C)NS(=O)(=O)c2ccc(F)cc2)nc2cnc(C3CC3)cc21` [Example 186, 4-Fluoro-N-[1-(6-cyclopropyl-1-ethyl-1H-imidazo[4,5-c]pyridin-2-yl)-1-methyl-ethyl]-benzenesulfonamide], 56.5%. For `CCn1c([C@@H](C)NS(=O)(=O)c2cccn2C)nc2ccc(C(F)(F)F)cc21` [Example 187, (R)—N-(1-(1-Ethyl-6-(trifluoromethyl)-1H-benzo[d]imidazol-2-yl)ethyl)-1-methyl-1H-pyrrole-2-sulfonamide] the value was 86.2%.
